Earlier results as cited in patent publication EP0276807A2, “Lipid regulating compositions” (WARNER-LAMBERT COMPANY, priority 1987, dated 1988).

Molecular target: T1, HMG-CoA reductase (Homo sapiens, UniProt P04035)
T1 sequence (P04035 1-888): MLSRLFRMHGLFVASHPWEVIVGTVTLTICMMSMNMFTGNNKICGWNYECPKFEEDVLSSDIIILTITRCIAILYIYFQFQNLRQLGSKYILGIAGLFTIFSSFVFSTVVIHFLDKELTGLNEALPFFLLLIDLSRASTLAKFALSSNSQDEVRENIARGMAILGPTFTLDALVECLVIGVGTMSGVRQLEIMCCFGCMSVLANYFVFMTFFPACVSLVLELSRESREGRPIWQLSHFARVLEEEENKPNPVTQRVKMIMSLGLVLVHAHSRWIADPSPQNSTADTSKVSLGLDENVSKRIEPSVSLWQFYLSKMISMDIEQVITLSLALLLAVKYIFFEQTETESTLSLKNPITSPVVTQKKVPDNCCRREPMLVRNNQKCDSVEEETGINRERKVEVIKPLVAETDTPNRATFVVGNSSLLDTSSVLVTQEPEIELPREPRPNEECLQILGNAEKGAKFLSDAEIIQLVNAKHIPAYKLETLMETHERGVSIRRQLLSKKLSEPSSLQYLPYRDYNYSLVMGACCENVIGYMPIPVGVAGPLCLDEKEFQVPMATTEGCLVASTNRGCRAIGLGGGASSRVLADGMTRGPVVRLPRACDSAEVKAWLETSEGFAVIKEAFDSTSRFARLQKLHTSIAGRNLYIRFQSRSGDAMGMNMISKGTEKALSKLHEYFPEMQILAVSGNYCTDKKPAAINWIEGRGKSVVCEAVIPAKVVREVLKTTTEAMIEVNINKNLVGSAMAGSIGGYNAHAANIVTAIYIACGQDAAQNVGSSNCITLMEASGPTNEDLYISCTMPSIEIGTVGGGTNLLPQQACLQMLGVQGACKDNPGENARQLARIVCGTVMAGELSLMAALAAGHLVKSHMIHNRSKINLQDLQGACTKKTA
Conditions: read-out: IC₅₀ value for inhibition of HMG-CoA reductase

Q: With CCC(C)C(=O)OC1CC(C)C=C2C=CC(C)C(CCC(O)CC(O)CC(=O)O)C21 (stereo not drawn) [Mevinolinic acid, [1S-[1α(βS*,δS*),2α,6β,8β(R*)8aα]]-1,2,6,7,8,8a-hexahydro-β,δ-dihydroxy-2,6-dimethyl-8-(2-methyl-1-oxobutoxy)-1-naphthaleneheptanoic acid] as the molecule, how does the IC50 read?
A: ~5.6 nM
